According to article PMC7762498, “Demethoxycurcumin analogue DMC-BH exhibits potent anticancer effects on orthotopic glioblastomas” (Aging (Albany NY), 2020):
Like-named read-outs stand apart in the source and are kept apart here.

Experiments:
ICR mice = assay: in vivo; details: mouse; for Mortality rate (%) / No. of dead mice: female, ICR, 14 days
in vivo = details: female, ICR, mouse, ip
U251 glioma cells = assay: MTT cell viability assay, U251; format: cell-based; details: Homo sapiens, U-251, 72 hours
Procedure: (§1) To investigate the cytotoxicity of DMC-BH on glioma cells (Figure 1A), we used an MTT assay to assess viability changes in SHG-44, C6, U251, U87, A172 and primary glioma cells treated with various concentrations of DMC-BH for 24, 48 or 72 hours (Figure 1B–1H). […] U251 and SHG-44 cells were more sensitive to DMC-BH. We then used the human glial cell line, HEB, to evaluate the toxicity of DMC-BH in normal cells. […] DMC-BH was not toxic to normal cells.
(§2) The human GBM U87-luc cell line was purchased from the Shanghai Sunbio Medical Biotechnology Co., Ltd. (Shanghai, China). Cells were cultured in DMEM supplemented with 10% fetal bovine serum (FBS) and maintained in an incubator at 37° C and 5% CO2. After cells were routinely passaged at 2- to 3-day intervals, animal experiments were carried out when the cells entered exponential growth phase. Rat C6, human SHG-44, U87, A172 and U251 glioma cells were obtained from the Shanghai Institute of Cell Biology, Chinese Academy of Sciences (Shanghai, China). Primary glioma cells were preserved by our laboratory from previous studies. […]
(§3) Glioblastoma cells were seeded into 96-well plates and exposed to vehicle (PBS) or different concentrations of DMC-BH for 24, 48 or 72 hours. Cell viability was measured using an MTT assay and was expressed as a ratio to the absorbance value of the control cells at 570 nm.

C6 glioma cells = assay: MTT cell viability assay, C6; format: cell-based; details: Rattus norvegicus, 72 hours
Procedure: as §1, §2, §3

[1] = Octanol-water partition coefficient; format: physicochemical
Description: To determine whether DMC-BH inhibits the growth of glioma in the brain, we assessed its octanol-water partition coefficients and BBB penetrability. The hydrophobic parameters (logP) of DMC-BH and DMC were estimated under physiological as well as in acidic and basic conditions. The logP values for DMC-BH were negative at pH 2.5 and pH 9.0, as it was an amphoteric compound. At low pH or high pH conditions, DMC-BH occurred in the form of salts, and its logP values became negative due to better solubility.
Figure 2 Octanol-water partition coefficients (logP) and BBB penetrability of DMC-BH. (A) The logP was defined as log(Coctanol/Cwater). The amount of the compound in the water phase was determined spectrophotometrically, and the amount in the octanol phase was obtained by subtracting the supernatant concentration from the total concentration. (B) The BBB penetrability was defined as a brain-to-plasma AUC(time point) ratio. Values are expressed as the means ± SEM of 3 independent experiments.
The partition coefficient (P) between n-octanol and water was determined. The buffer mixture (0.05 M citric buffer, pH 2.5; 0.05 M acetic acid buffer, pH 5.5; 5 mM PBS, pH 7.4; or 0.05 M bicarbonate buffer, pH 9.0) and n-octanol was pre-equilibrated overnight at room temperature. After addition of the DMC or DMC-BH, the mixture was vortexed for 10 minutes and incubated at room temperature for an additional 15 minutes before centrifugation at 1000 g for 5 minutes. The amount of the compound in water phase was determined spectrophotometrically using standard curves, and the amount in lipid phase was obtained by subtracting the supernatant concentration from the total concentration, measured before mixing of the phases. P was determined according to P = (noct/Voct)/(nw/Vw), where n denotes the number of compound moles, V is the volume and the subscripts oct and w refer to n-octanol and aqueous phase, respectively.

A172 glioma cells = assay: MTT cell viability assay, A172; format: cell-based; details: Homo sapiens, A 172, 72 hours
Procedure: as §1, §2, §3

SHG-44 glioma cells = assay: MTT cell viability assay, SHG-44; format: cell-based; details: Homo sapiens, SHG-44 cells, 72 hours
Procedure: as §1, §2, §3

[2] = system: human glial cell line, HEB; assay: MTT assay on normal glial cells; format: cell-based; details: 24 hours of incubation with 32 μM
Procedure: as §1, §3

U87 glioma cells = assay: MTT cell viability assay, U87; format: cell-based; details: Homo sapiens, U-87 MG, 72 hours
Procedure: as §1, §2, §3

[3] = system: glioblastoma multiforme (GBM) patient derived tumors; assay: Patient-derived tumor xenograft (PDTX) model; format: in vivo, mice
Description: In recent years, PDTX models have been used to mimic human tumors. These models are more clinically relevant than cell line-based xenograft models. Thus, we performed an in vivo study in a PDTX tumor model by implanting human glioma samples from a patient donor into B-NDG mice (Figure 7A).
Figure 7 In vivo anti-tumor activity of DMC-BH in the PDTX tumor model. (A) A scheme illustrating the process of creating the patient-derived tumor model. (B) Tumor growth curves of mice after treatment with 7.5 mg/kg, 15 mg/kg or 30 mg/kg DMC-BH or 20 mg/kg TMZ. (C) Average tumor weight at day 21 after different treatments. (D) Quantification of the Ki67-positive area in different treatment groups. (E) Representative H&E-stained tumor slices and Ki67 immunofluorescence labeled tumor tissue sections from different treatments groups. The data are shown as mean ± SD (n = 6).
Surgically resected human glioma tissue was obtained from a cancer patient (#0407002) following an approved Nanjing Medicinal University Institutional Review Board protocol. Within 2 hours of surgical resection, tumor tissues were cut into 1-2 mm fragments and implanted into SCID mice (B-NDG, 6 weeks old, female) using a surgical procedure approved by Nanjing Medicinal University Institutional Animal Care and Use committee. After surgery, tumor growth in the mice was monitored by palpating the abdomen twice per week. Tumors grew to 5-10 mm in diameter in about 8-10 weeks. The SCID mice bearing PDTX tumors were sacrificed, and tumor fragments of 1 to 2 mm in size were implanted into 6-week-old female SCID mice. Over 60% of the mice experienced tumor growth in approximately 6 weeks.

CYP-450 = assay: CYP-450-related metabolism; format: in vitro ADME
Plasma protein binding = format: in vitro ADME
[4] = B-NDG mice, DMC-BH 7.5, 15 or 30 mg/kg, TMZ 20 mg/kg

For COc1cc(C=CC(=O)CC(=O)C=Cc2ccc(O)c(CN3CCCC3)c2)ccc1O [DMC-BH, 1-[4-Hydroxy-3-(pyrrolidin-1-ylmethyl)phenyl]-7-(4-hydroxy-3-methoxyphenyl) hepta-1,6-diene-3,5-dione], the “Mortality rate (%)” value (ICR mice; 5 mg/kg) was 0.0%, the “No. of dead mice” value (ICR mice; 5 mg/kg) was 0 and the “Mortality rate (%)” value (ICR mice; 10 mg/kg) was 0.0%. For the same molecule, the “No. of dead mice” value (ICR mice; 10 mg/kg) was 0, the “Mortality rate (%)” value (ICR mice; 20 mg/kg) was 0.0% and the “No. of dead mice” value (ICR mice; 20 mg/kg) was 0. The “Mortality rate (%)” value (ICR mice; 30 mg/kg) was 10.0%, the “No. of dead mice” value (ICR mice; 30 mg/kg) was 1 and the “abnormalities compared to the control mice” value (ICR mice) was “no abnormalities”. It also gave an LD50 at 14 days (in vivo) of 48.1 mg/kg, an IC50 (U251 glioma cells) of 2.52 µM and an IC50 (C6 glioma cells) of 5.79 µM. For the same molecule, the logP ([1]; n-octanol/water (buffer), pH 7.4, n-octanol/water, read-out: logP) was 3.26, the logP ([1]; pH 2.5, n-octanol/water) was “negative” and the logP ([1]; pH 9.0, n-octanol/water) was “negative”. For the same molecule, the IC50 (A172 glioma cells) was 5.68 µM, the IC50 (SHG-44 glioma cells) was 3.08 µM and the “viability of HEB cells” value [2] was “not reduced markedly”. For the same molecule, the IC50 (U87 glioma cells) was 4.77 µM, the “tolerability in PDTX model” value [3, 4] was “tolerated” and the “tumor growth in PDTX model” value [3, 4] was “significant tumor regression”. The “number of Ki67-positive cells in tumor” value ([3]; PDTX tumor, 20 mg/kg, compared with the control tumor) was “marked decrease”, the CYP-450-related metabolism (CYP-450) was “low” and the fraction unbound (Plasma protein binding) was 0.038.
